In US20070128217A1 (priority 2003, published 2007):

How the values were obtained:
[1] = tested on: antibodies in sera from SARS patients (sera 1a, 1b, 2, 6, 37, 62, London, SARS-yellow, SARS-green); assay type: binding, human; design: Binding of serum 6 to linear peptides of protein X1 of SARS-CoV Urbani / Binding of serum 37 to linear peptides of protein X1 of SARS-CoV Urbani / Binding of serum 6 to looped/cyclic peptide (PEPSCAN-ELISA) / Binding of serum 37 to looped/cyclic peptide (PEPSCAN-ELISA) / Binding of serum 37 to looped/cyclic peptides of protein X1 of SARS-CoV Urbani / Binding of serum 6 to linear peptides of protein X2 / Binding of serum 37 to linear peptides of protein X2 / Binding of serum 37 to looped/cyclic peptides of protein X2 of SARS-CoV Urbani / Binding of serum 6 to linear peptides of protein M of SARS-CoV Urbani / Binding of serum 37 to linear peptides of protein M of SARS-CoV Urbani / Binding of serum 6 to looped/cyclic peptides of protein M of SARS-CoV Urbani / Binding of serum 37 to looped/cyclic peptides of protein M of SARS-CoV Urbani / Binding of serum 6 to linear peptides of protein X3 of SARS-CoV Urbani / Binding of serum 37 to linear peptides of protein X3 of SARS-CoV Urbani / Binding of serum 37 to looped/cyclic peptides of protein X3 of SARS-CoV Urbani / Binding of serum 6 to linear peptides of protein X4 of SARS-CoV Urbani / Binding of serum 37 to linear peptides of protein X4 of SARS-CoV Urbani / Binding of serum 37 to looped/cyclic peptides of protein X4 of SARS-CoV Urbani / Binding of serum 6 to linear peptides of protein X5 of SARS-CoV Urbani / Binding of serum 37 to linear peptides of protein X5 of SARS-CoV Urbani / Binding of serum 37 to looped/cyclic peptides of protein X5 of SARS-CoV Urbani / Binding of serum 6 to linear peptides of protein N of SARS-CoV Urbani / Binding of serum 37 to linear peptides of protein N of SARS-CoV Urbani / Binding of serum 6 to linear peptide (PEPSCAN-ELISA) / Binding of serum 1a to looped/cyclic peptides of protein N of SARS-CoV Urbani / Binding of serum 1b to looped/cyclic peptides of protein N of SARS-CoV Urbani / Binding of serum 2 to looped/cyclic peptides of protein N of SARS-CoV Urbani / Binding of serum 6 to looped/cyclic peptides of protein N of SARS-CoV Urbani / Binding of serum 37 to looped/cyclic peptides of protein N of SARS-CoV Urbani / Binding of serum 62 to looped/cyclic peptides of protein N of SARS-CoV Urbani / Binding of serum London to looped/cyclic peptides of protein N of SARS-CoV Urbani / Binding of serum SARS-green to looped/cyclic peptides of protein N of SARS-CoV Urbani: unit not given here
[2] = tested on: recombinant human anti-SARS-CoV antibody 03-018; assay type: binding; design: Binding of antibody 03-018 to linear peptides of the N protein of SARS-CoV Urbani / Binding of antibody 03-018 to looped/cyclic peptides of the N protein of SARS-CoV Urbani: unit not given here
[3] = tested on: control sera (pooled serum of ten healthy LUMC hospital workers; commercial negative donor pooled serum from the Dutch bloodbank); assay type: binding, human; design: Binding of Control serum LUMC to linear peptides / Binding of Control serum Blood-bank to linear peptides / Binding of Control serum LUMC to looped peptides / Binding of Control Serum Blood-Bank to Looped peptides / Binding of Control serum LUMC to linear peptides of the protein M of SARS-CoV Urbani / Binding of Control serum Blood-bank to linear peptides of the protein M of SARS-CoV Urbani / Binding of Control serum LUMC to looped peptides of the protein M of SARS-CoV Urbani / Binding of Control Serum Blood-Bank to Looped peptides of the protein M of SARS-CoV Urbani: unit not given here
[4] = tested on: rabbit serum obtained by immunizing a rabbit with the SARS-CoV strain Frankfurt 1; assay type: binding; design: Binding of a rabbit serum to linear peptides / Binding of a rabbit serum to looped peptides / Rabbit serum linear peptides / Rabbit serum looped peptides / Binding of a rabbit serum to linear peptides of protein N of SARS-CoV Urbani (Rabbit serum linear peptides) / Binding of a rabbit serum to looped/cyclic peptides of protein N of SARS-CoV Urbani (Rabbit serum looped peptides): unit not given here

Sequence	Binding of serum 1a to linear peptides of protein N of SARS-CoV Urbani [1]	Binding of serum 1a to looped/cyclic peptides of protein N of SARS-CoV Urbani [1]	Binding of serum 1b to linear peptides of protein N of SARS-CoV Urbani [1]	Binding of serum 1b to looped/cyclic peptides of protein N of SARS-CoV Urbani [1]	Binding of serum 2 to linear peptides of protein N of SARS-CoV Urbani [1]	Binding of serum 2 to looped/cyclic peptides of protein N of SARS-CoV Urbani [1]	Binding of serum 6 to linear peptides of protein N of SARS-CoV Urbani [1]	Binding of serum 6 to looped/cyclic peptides of protein N of SARS-CoV Urbani [1]	Binding of serum 37 to linear peptides of protein N of SARS-CoV Urbani [1]	Binding of serum 37 to looped/cyclic peptides of protein N of SARS-CoV Urbani [1]	Binding of serum 62 to linear peptides of protein N of SARS-CoV Urbani [1]	Binding of serum 62 to looped/cyclic peptides of protein N of SARS-CoV Urbani [1]	Binding of serum London to linear peptides of protein N of SARS-CoV Urbani [1]	Binding of serum London to looped/cyclic peptides of protein N of SARS-CoV Urbani [1]	Binding of serum SARS-green to linear peptides of protein N of SARS-CoV Urbani [1]	Binding of serum SARS-green to looped/cyclic peptides of protein N of SARS-CoV Urbani [1]	Binding of serum SARS-yellow to linear peptides of protein N of SARS-CoV Urbani [1]	Binding of serum SARS-yellow to looped/cyclic peptides of protein N of SARS-CoV Urbani [1]	Binding of Control Serum Blood-Bank to Looped peptides [3]	Binding of Control serum Blood-bank to linear peptides [3]	also measured
PNNNAATVLQLPQGT	0.2	0.5	0.1	0.4	0.2	0.8	0.1	0.3	0.6	1.0	0.6	0.9	0.5	0.7	0.3	0.7	0.7	0.5	0.9	0.6	Binding of antibody 03-018 to linear peptides of the N protein of SARS-CoV Urbani [2]: 0.1; Binding of antibody 03-018 to looped/cyclic peptides of the N protein of SARS-CoV Urbani [2]: 0.3; Binding of Control serum LUMC to linear peptides [3]: 0.6; Binding of Control serum LUMC to looped peptides [3]: 0.8; Binding of a rabbit serum to linear peptides of protein N of SARS-CoV Urbani (Rabbit serum linear peptides) [4]: 0.0; Binding of a rabbit serum to looped/cyclic peptides of protein N of SARS-CoV Urbani (Rabbit serum looped peptides) [4]: 0.2
PQRQKKQPTVTLLPA	0.3		0.2		0.3		0.2		0.7		0.7		0.5		0.5		0.6				Recognition of the peptide by sera of SARS-CoV infected individuals, and form (linear, looped/cyclic) in which it is recognized [1]: recognized in looped/cyclic form; Binding of antibody 03-018 to linear peptides of the N protein of SARS-CoV Urbani [2]: 0.1; Binding of antibody 03-018 to looped/cyclic peptides of the N protein of SARS-CoV Urbani [2]: 0.3; Control Serum Blood-Bank Looped peptides [3]: 0.9; Control serum Blood-bank linear peptides [3]: 0.8; Control serum LUMC linear peptides [3]: 0.7; Control serum LUMC looped peptides [3]: 0.7; Binding of a rabbit serum to linear peptides of protein N of SARS-CoV Urbani (Rabbit serum linear peptides) [4]: 0.2; Binding of a rabbit serum to looped/cyclic peptides of protein N of SARS-CoV Urbani (Rabbit serum looped peptides) [4]: 0.7
PQSNQRSAPRITFGG	0.3	0.5	0.2	0.3	0.2	0.5	0.1	0.5	0.6	0.8	0.6	0.7	0.4	0.5	0.3	0.4	0.5	0.6	0.8	0.5	Recognition of the peptide by antibody 03-018 [2]: recognized; Binding of Control serum LUMC to linear peptides [3]: 0.6; Binding of Control serum LUMC to looped peptides [3]: 0.7; Recognition of the peptide by the rabbit serum [4]: also recognized
PRGQGVPINTNSGPD	0.2	0.2	0.1	0.1	0.1	0.2	0.1	0.1	0.6	0.3	0.4	0.2	0.4	0.2	0.2	0.1	0.6	0.1	0.4	0.7	Binding of antibody 03-018 to linear peptides of the N protein of SARS-CoV Urbani [2]: 0.1; Binding of antibody 03-018 to looped/cyclic peptides of the N protein of SARS-CoV Urbani [2]: 0.2; Binding of Control serum LUMC to linear peptides [3]: 0.5; Binding of Control serum LUMC to looped peptides [3]: 0.3; Binding of a rabbit serum to linear peptides of protein N of SARS-CoV Urbani (Rabbit serum linear peptides) [4]: 0.1; Binding of a rabbit serum to looped/cyclic peptides of protein N of SARS-CoV Urbani (Rabbit serum looped peptides) [4]: 0.0
PRITFGGPTDSTDNN	0.2	0.3	0.1	0.2	0.2	0.3	0.1	0.2	0.7	0.7	0.6	0.5	0.5	0.3	0.6	0.8	0.3	0.4	0.6	0.6	Recognition of the peptide by antibody 03-018 [2]: recognized; Binding of Control serum LUMC to linear peptides [3]: 0.5; Binding of Control serum LUMC to looped peptides [3]: 0.6; Binding of a rabbit serum to linear peptides of protein N of SARS-CoV Urbani (Rabbit serum linear peptides) [4]: 0.3; Binding of a rabbit serum to looped/cyclic peptides of protein N of SARS-CoV Urbani (Rabbit serum looped peptides) [4]: 0.4
